# Measurements as given in patent publication US12391679B2, “Benzamide-substituted bicyclic imidazo- and pyrazolo-fused -pyridine, -pyrimide, and -pyridazine compounds for treatment of inflammatory diseases” (ONCO3R Therapeutics BV, priority 2019, dated 2025).
# Key:
# Format in all cases: biochemical
# SIK1 = target: T1, SIK1 (Homo sapiens, UniProt P57059); experiment: ADP-Glo kinase assay, SIK1
# T1 construct: purchased Carna Biosciences 02-131
# Method: (§1) The ADP-Glo™ kinase assay is a luminescent technology assay which measures the ADP formed from a kinase reaction. […] In a second step the kinase reactions are terminated and all the remaining ATP is depleted. In a final step the ADP is converted into ATP and this newly synthesized ATP is measured by using a luciferase/luciferin reaction. The generated light is measured using an Envision plate reader, wherein the luminescent signal obtained positively correlates with the kinase activity.
# (§2) 1% DMSO and 10 μM staurosporine final concentrations are used as negative and positive controls.
# (§3) 2 μL enzyme-substrate mixture is added to the assay plates.
# (§4) The reaction is started by adding 2 μL diluted ATP on the assay plates. Plates are centrifuged for a few seconds at 1000 rpm and gently shaken for […] followed by an incubation at RT for 120 min.
# (§5) The reactions are stopped and the unconsumed ATP is depleted by adding 5 μL ADP-Glo Reagent (Promega, Cat #V9120) to the reaction. The plates are centrifuged for a few seconds at 1000 rpm and incubated at RT for 40 min (ATP depletion).
# (§6) The ADP is converted to ATP and luciferase and luciferin is introduced to detect ATP by adding 10 μL Kinase Detection Reagent (Promega, Cat #V913B+V914r) to the reaction. The plates are centrifuged for a few seconds at 1000 rpm and incubated at RT for 30 min (ADP detection).
# (§7) Luminescence is measured on an Envision plate reader (PerkinElmer Inc.).
# SIK2 = target: T2, SIK2 (Homo sapiens, UniProt Q9H0K1); experiment: ADP-Glo kinase assay, SIK2
# T2 construct: purchased ThermoFisher Scientific PV4792
# T2 sequence (Q9H0K1 whole entry): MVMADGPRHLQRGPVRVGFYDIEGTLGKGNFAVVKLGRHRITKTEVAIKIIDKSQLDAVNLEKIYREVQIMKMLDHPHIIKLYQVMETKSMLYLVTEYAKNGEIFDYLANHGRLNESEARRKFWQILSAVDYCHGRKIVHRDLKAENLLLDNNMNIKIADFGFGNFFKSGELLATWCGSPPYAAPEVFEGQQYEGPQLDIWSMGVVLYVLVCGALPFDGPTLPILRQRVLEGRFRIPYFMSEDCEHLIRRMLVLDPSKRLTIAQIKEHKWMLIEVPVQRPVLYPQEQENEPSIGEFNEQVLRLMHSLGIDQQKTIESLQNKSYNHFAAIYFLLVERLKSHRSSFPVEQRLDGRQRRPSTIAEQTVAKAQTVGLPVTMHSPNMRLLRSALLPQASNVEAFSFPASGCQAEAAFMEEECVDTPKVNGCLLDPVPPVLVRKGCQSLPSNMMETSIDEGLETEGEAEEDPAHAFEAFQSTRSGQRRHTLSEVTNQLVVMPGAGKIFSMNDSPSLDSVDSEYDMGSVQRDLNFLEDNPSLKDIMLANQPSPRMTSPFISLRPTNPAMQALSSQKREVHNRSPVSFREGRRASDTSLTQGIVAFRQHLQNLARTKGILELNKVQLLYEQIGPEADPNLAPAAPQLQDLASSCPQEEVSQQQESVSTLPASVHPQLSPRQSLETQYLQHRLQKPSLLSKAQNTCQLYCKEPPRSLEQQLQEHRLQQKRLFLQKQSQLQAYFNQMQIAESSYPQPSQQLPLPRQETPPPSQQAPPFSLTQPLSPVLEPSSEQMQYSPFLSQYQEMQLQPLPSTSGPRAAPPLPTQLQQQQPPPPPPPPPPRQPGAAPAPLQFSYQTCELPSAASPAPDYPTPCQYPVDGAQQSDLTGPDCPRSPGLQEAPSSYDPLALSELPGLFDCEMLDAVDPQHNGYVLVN
# Method: as §1, §2, §3, §4, §5, §6, §7
# SIK3 = target: T3, SIK3 (Homo sapiens, UniProt Q9Y2K2); experiment: ADP-Glo kinase assay, SIK3
# T3 construct: purchased SignalChem S12-11G-100
# T3 sequence (Q9Y2K2 59-365 limits assumed): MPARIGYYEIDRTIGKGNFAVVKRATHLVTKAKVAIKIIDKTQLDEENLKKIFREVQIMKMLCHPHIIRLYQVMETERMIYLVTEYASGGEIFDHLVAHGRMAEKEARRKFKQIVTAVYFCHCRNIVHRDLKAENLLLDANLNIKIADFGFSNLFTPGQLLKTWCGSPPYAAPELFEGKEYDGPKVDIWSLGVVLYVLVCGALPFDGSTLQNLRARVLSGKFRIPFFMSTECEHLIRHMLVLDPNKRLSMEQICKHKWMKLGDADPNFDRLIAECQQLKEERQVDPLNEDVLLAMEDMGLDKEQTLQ
# Method: as §1, §2, §3, §4, §5, §6, §7
# T1 sequence (P57059 whole entry): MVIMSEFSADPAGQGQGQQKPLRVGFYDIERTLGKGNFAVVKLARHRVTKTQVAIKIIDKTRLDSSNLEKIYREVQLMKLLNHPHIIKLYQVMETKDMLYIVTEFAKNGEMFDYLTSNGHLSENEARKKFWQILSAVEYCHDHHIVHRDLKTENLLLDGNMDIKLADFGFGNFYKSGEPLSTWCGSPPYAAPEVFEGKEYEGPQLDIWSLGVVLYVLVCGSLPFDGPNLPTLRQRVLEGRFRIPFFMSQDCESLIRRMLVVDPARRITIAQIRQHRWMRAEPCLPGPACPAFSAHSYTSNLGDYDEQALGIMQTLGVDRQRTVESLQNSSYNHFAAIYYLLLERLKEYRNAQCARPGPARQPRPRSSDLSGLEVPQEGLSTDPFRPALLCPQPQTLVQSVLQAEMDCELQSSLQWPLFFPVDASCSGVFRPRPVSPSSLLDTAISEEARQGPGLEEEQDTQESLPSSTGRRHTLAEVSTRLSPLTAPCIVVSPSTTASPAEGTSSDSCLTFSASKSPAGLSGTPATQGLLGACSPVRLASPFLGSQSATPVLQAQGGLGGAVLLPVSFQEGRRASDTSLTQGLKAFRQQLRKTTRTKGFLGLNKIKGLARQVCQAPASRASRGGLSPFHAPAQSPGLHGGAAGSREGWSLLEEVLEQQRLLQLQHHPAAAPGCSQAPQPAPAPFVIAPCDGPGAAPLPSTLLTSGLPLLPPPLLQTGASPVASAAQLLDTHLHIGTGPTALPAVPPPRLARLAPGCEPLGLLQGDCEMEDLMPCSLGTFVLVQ
Compound,IC50 (SIK1) [nM],IC50 (SIK2) [nM],IC50 (SIK3) [nM]
"COc1cc(-c2cnc3cc(C(C)(C)C#N)ccn23)cc(OC(F)F)c1C(=O)N1CCOCC1 [Cpd 48, 2-[3-[3-(difluoromethoxy)-5-methoxy-4-(morpholine-4-carbonyl)phenyl]imidazo[1,2-a]pyridin-7-yl]-2-methyl-propanenitrile]",> 500,> 500,> 500
"COc1cc(-c2cnc3cc(C(C)(C)C#N)ccn23)cc(OC(F)F)c1C(=O)N1CCN(C)CC1 [Cpd 49, 2-[3-[3-(difluoromethoxy)-5-methoxy-4-(4-methylpiperazine-1-carbonyl)phenyl]imidazo[1,2-a]pyridin-7-yl]-2-methyl-propanenitrile]",> 500,> 500,> 500
"COc1cc(-c2cnc3cc(C(C)(C)C#N)ccn23)cc(OC(F)F)c1C(=O)N1CC(O)C1 [Cpd 50, 2-[3-[3-(difluoromethoxy)-4-(3-hydroxyazetidine-1-carbonyl)-5-methoxy-phenyl]imidazo[1,2-a]pyridin-7-yl]-2-methyl-propanenitrile]",> 500,> 500,100 to 500
"COc1cc(-c2cnc3cc(C(C)(C)C#N)ccn23)cc(OC(F)F)c1C(=O)N1CC2(COC2)C1 [Cpd 51, 2-[3-[3-(difluoromethoxy)-5-methoxy-4-(2-oxa-6-azaspiro[3.3]heptane-6-carbonyl)phenyl]imidazo[1,2-a]pyridin-7-yl]-2-methyl-propanenitrile]",> 500,> 500,10 to 100
"COc1cc(-c2cnc3cc(C(C)(C)C#N)ccn23)cc(OC(F)F)c1C(=O)NCc1ccn(C)n1 [Cpd 52, 4-[7-(1-cyano-1-methyl-ethyl)imidazo[1,2-a]pyridin-3-yl]-2-(difluoromethoxy)-6-methoxy-N-[(1-methylpyrazol-3-yl)methyl]benzamide]",> 500,> 500,> 500
"COc1cc(-c2cnc3cc(C(C)O)ccn23)cc(OC)c1C(=O)NCC(F)(F)F (stereo not drawn) [Cpd 54, 4-[7-(1-hydroxyethyl)imidazo[1,2-a]pyridin-3-yl]-2,6-dimethoxy-N-(2,2,2-trifluoroethyl)benzamide]",> 500,> 500,10 to 100
"COc1cc(-c2cnc3cc(C(C)(C)N)ccn23)cc(OC)c1C(=O)NCC(F)(F)F [Cpd 55, 4-[7-(1-amino-1-methyl-ethyl)imidazo[1,2-a]pyridin-3-yl]-2,6-dimethoxy-N-(2,2,2-trifluoroethyl)benzamide]",> 500,> 500,10 to 100
"COc1cc(-c2cnc3cc(C(C)(C)C(C)=O)ccn23)cc(OC)c1C(=O)NCC(F)(F)F [Cpd 56, 4-[7-(1,1-dimethyl-2-oxo-propyl)imidazo[1,2-a]pyridin-3-yl]-2,6-dimethoxy-N-(2,2,2-trifluoroethyl)benzamide]",> 500,> 500,10 to 100
"COc1cc(-c2cnc3cc(C(C)(C)O)ccn23)cc(OC)c1C(=O)NCC(F)(F)F [Cpd 57, 4-[7-(1-hydroxy-1-methyl-ethyl)imidazo[1,2-a]pyridin-3-yl]-2,6-dimethoxy-N-(2,2,2-trifluoroethyl)benzamide]",> 500,> 500,10 to 100
"COc1cc(-c2cnc3cc(C(C)(C)c4noc(C)n4)ccn23)cc(OC(F)F)c1C(=O)NC1CC1 [Cpd 61, N-cyclopropyl-2-(difluoromethoxy)-6-methoxy-4-[7-[1-methyl-1-(5-methyl-1,2,4-oxadiazol-3-yl)ethyl]imidazo[1,2-a]pyridin-3-yl]benzamide]",> 500,> 500,10 to 100
"COc1cc(-c2cnc3cc(C4CCCNC4)ccn23)cc(OC(F)F)c1C(=O)NC1CC1 (stereo not drawn) [Cpd 65, N-cyclopropyl-2-(difluoromethoxy)-6-methoxy-4-[7-(3-piperidyl)imidazo[1,2-a]pyridin-3-yl]benzamide]",> 500,10 to 100,0.01 to 10

# Now from value to compound:
IC50 (SIK1) [nM],IC50 (SIK2) [nM],IC50 (SIK3) [nM],Compound
> 500,> 500,10 to 100,"C=CCC(C#N)(CC=C)c1ccn2c(-c3cc(OC)c(C(=O)NC4CC4)c(OC(F)F)c3)cnc2c1 [Cpd 36, 4-[7-(1-allyl-1-cyano-but-3-enyl)imidazo[1,2-a]pyridin-3-yl]-N-cyclopropyl-2-(difluoromethoxy)-6-methoxy-benzamide]"
> 500,100 to 500,10 to 100,"COc1cc(-c2cnc3cc(C4CCOCC4)ccn23)cc(OC)c1C(=O)NCC(F)(F)F [Cpd 37, 2,6-dimethoxy-4-(7-tetrahydropyran-4-ylimidazo[1,2-a]pyridin-3-yl)-N-(2,2,2-trifluoroethyl)benzamide]"
> 500,> 500,> 500,"COc1cc(-c2cnc3cc(C(C)(C)C#N)ccn23)cc(OC(F)F)c1C(=O)N1CCS(=O)(=O)CC1 [Cpd 38, 2-[3-[3-(difluoromethoxy)-4-(1,1-dioxo-1,4-thiazinane-4-carbonyl)-5-methoxy-phenyl]imidazo[1,2-a]pyridin-7-yl]-2-methyl-propanenitrile]"
> 500,> 500,> 500,"CCN(C)C(=O)c1c(OC)cc(-c2cnc3cc(C(C)(C)C#N)ccn23)cc1OC(F)F [Cpd 40, 4-[7-(1-cyano-1-methyl-ethyl)imidazo[1,2-a]pyridin-3-yl]-2-(difluoromethoxy)-N-ethyl-6-methoxy-N-methyl-benzamide]"
> 500,> 500,> 500,"COc1cc(-c2cnc3cc(C(C)(C)C#N)ccn23)cc(OC(F)F)c1C(=O)N1CCC(O)CC1 [Cpd 41, 2-[3-[3-(difluoromethoxy)-4-(4-hydroxypiperidine-1-carbonyl)-5-methoxy-phenyl]imidazo[1,2-a]pyridin-7-yl]-2-methyl-propanenitrile]"
> 500,> 500,100 to 500,"COc1cc(-c2cnc3cc(C(C)(C)C#N)ccn23)cc(OC(F)F)c1C(=O)NCCN1CCOCC1 [Cpd 42, 4-[7-(1-cyano-1-methyl-ethyl)imidazo[1,2-a]pyridin-3-yl]-2-(difluoromethoxy)-6-methoxy-N-(2-morpholinoethyl)benzamide]"
> 500,> 500,10 to 100,"COc1cc(-c2cnc3cc(C(C)(C)C#N)ccn23)cc(OC(F)F)c1C(=O)NC1COC1 [Cpd 43, 4-[7-(1-cyano-1-methyl-ethyl)imidazo[1,2-a]pyridin-3-yl]-2-(difluoromethoxy)-6-methoxy-N-(oxetan-3-yl)benzamide]"
> 500,> 500,10 to 100,"COc1cc(-c2cnc3cc(C(C)(C)C#N)ccn23)cc(OC(F)F)c1C(=O)NCCCO [Cpd 44, 4-[7-(1-cyano-1-methyl-ethyl)imidazo[1,2-a]pyridin-3-yl]-2-(difluoromethoxy)-N-(3-hydroxypropyl)-6-methoxy-benzamide]"
> 500,> 500,100 to 500,"COCCCNC(=O)c1c(OC)cc(-c2cnc3cc(C(C)(C)C#N)ccn23)cc1OC(F)F [Cpd 45, 4-[7-(1-cyano-1-methyl-ethyl)imidazo[1,2-a]pyridin-3-yl]-2-(difluoromethoxy)-6-methoxy-N-(3-methoxypropyl)benzamide]"
> 500,> 500,> 500,"COc1cc(-c2cnc3cc(C(C)(C)C#N)ccn23)cc(OC(F)F)c1C(=O)N1CCC(OC)CC1 [Cpd 46, 2-[3-[3-(difluoromethoxy)-5-methoxy-4-(4-methoxypiperidine-1-carbonyl)phenyl]imidazo[1,2-a]pyridin-7-yl]-2-methyl-propanenitrile]"
> 500,> 500,10 to 100,"COc1cc(-c2cnc3cc(C(C)(C)C#N)ccn23)cc(OC(F)F)c1C(=O)N1CCC(F)(F)C1 [Cpd 47, 2-[3-[3-(difluoromethoxy)-4-(3,3-difluoropyrrolidine-1-carbonyl)-5-methoxy-phenyl]imidazo[1,2-a]pyridin-7-yl]-2-methyl-propanenitrile]"
100 to 500,100 to 500,10 to 100,"COc1cc(-c2cnc3cc(C4CN(C(=O)OC(C)(C)C)C4)ccn23)cc(OC)c1C(=O)NCC(F)(F)F [Cpd 58, tert-butyl 3-[3-[3,5-dimethoxy-4-(2,2,2-trifluoroethylcarbamoyl)phenyl]imidazo[1,2-a]pyridin-7-yl]azetidine-1-carboxylate]"
10 to 100,10 to 100,0.01 to 10,"COc1cc(-c2cnc3cc(C4CN(C(=O)OC(C)(C)C)C4)ccn23)cc(OC(F)F)c1C(=O)NC1CC1 [Cpd 59, tert-butyl 3-[3-[4-(cyclopropylcarbamoyl)-3-(difluoromethoxy)-5-methoxy-phenyl]imidazo[1,2-a]pyridin-7-yl]azetidine-1-carboxylate]"
100 to 500,10 to 100,0.01 to 10,"COc1cc(-c2cnc3cc(C4CCN(C(=O)OC(C)(C)C)CC4)ccn23)cc(OC(F)F)c1C(=O)NC1CC1 [Cpd 60, tert-butyl 4-[3-[4-(cyclopropylcarbamoyl)-3-(difluoromethoxy)-5-methoxy-phenyl]imidazo[1,2-a]pyridin-7-yl]piperidine-1-carboxylate]"
